Experimental data: US20050170028A1, “Polysaccharide extract from Lycium barbarum as neuroprotective agent against beta-amyloid peptide neurotoxicity” (priority 2004, published 2005)

Tests used:
Assay type in all cases: cell-based
caspase-3 = experiment: colorimetric caspase-3 activity assay in neurons exposed to Aβ-peptide
Protocol: Caspase-3 has long been regarded as an index for neuronal apoptosis. Therefore, the colorimetric caspase-3 activity assay was performed at the concentrations stated in FIG. 5, and neuronal apoptosis was determined by the colorimetric caspase-3 activity assay by measuring the absorbance (at 405 nm) of the yellow product (pNA) cleaved from the substrate. Results (***p<0.001 vs. the group treated with Aβ-peptide alone, by one-way ANOVA, Tukey test) are expressed as mean±SE from at least three independent experiments.
Caspase-3 is a general apoptosis marker. For apoptosis analysis, the colorimetric caspase-3 activity assay (at 405 nm) was performed.
It is also a well-known Western medicine for the treatment of manic-depressive bi-polar disorder. […] Neurons were pretreated with either LiCl (2 mM to 20 mM) or LBA (0.1 μg/ml to 500μ/ml) for 1 hour, and then exposed to Aβ25-35 peptide (25 μM) for 24 hours. Caspase-3 activity assay was used to determine the protective effects against Aβ-peptide toxicity. […] The unit of concentration of LiCl was converted from mM to μ/ml for the purpose of comparison with LBA. […] The toxicity decreased when the concentration of LiCi increased and it reached the lowest value (8.5%) when LiCi was used at 850 μ/ml (20 mM). Accordingly, LiCl could effectively reduce Aβ-peptide-stimulated caspase-3 activity in the range of 340 μg/ml to 850 μg/ml (i.e. 8 mM to 20 mM). LBA exerted protective effects for neurons against Aβ-peptide toxicity from very low concentration to high concentration (0.1 μg/ml to 500 μg/ml).
It has been reported that specific inhibitor of JNK, SP600125, also exerts protection for neurons against Aβ-peptide toxicity. We therefore compared the therapeutic window of SP600125 with LBA to elucidate their effectiveness in neuroprotection. Neurons were pretreated with either SP600125 (5 μM to 20 μM) or LBA (0.1 μg/ml to 500 μg/ml) for 1 hour, and then exposed to Aβ-peptide (25 μM) for 16 hours. Caspase-3 activity assay was done to investigate their protective effects against Aβ-peptide toxicity. Thus, after treatment, colorimetric caspase-3 activity assay was done to examine the level of apoptosis. Caspase-3 activity was expressed as % toxicity. Results are expressed as mean±SE from at least three independent experiments. % toxicity is calculated as: (s.a.of Aβ-/LBA-/SP-treated−s.a.control)÷(s.a.Aβ-treated−s.a.control). […] The unit of concentration of SP600125 was converted from […] to μg/ml for the purpose of comparison with LBA. […] The toxicity was 100% when using SP600125 at more than 20 μM (data not shown). SP600125 was effective from 1.1 μg/ml to 4.4 μ/ml; the range is very narrow when compared with that of LBA.
(§1) We separated different fractions by ion-exchange chromatography. Activity of caspase-3 served as an index for neuronal apoptosis. […] The biochemical analysis of caspase-3 activity was confirmed by morphological examination (FIG. 17). Upon exposure to Aβ peptide, neurites were broken and neurons were undergoing apoptosis.
For apoptosis analysis, the activity of caspase-3 serves as an index for neuronal apoptosis. […] A hundred microgram per […] exerted a nearly 100% neuroprotective effects (FIG. 20).

[1] = test system: neurons exposed to Aβ25-35 peptide; experiment: LDH release cytotoxicity assay in neurons exposed to Aβ-peptide; conditions: Aβ25-35 peptide 25 μM alone, 24 h; control 24.7±0.45%; mean±SE
Protocol: To examine the effects of the aqueous extract LBA from Lycium barbarum on Aβ-peptide-induced neurotoxicity, neurons were pretreated with LBA (ranging from 0.1 μg/ml to 500 μg/ml) for 1 hour, followed by a 24-hour exposure to Aβ25-35 peptide (25 μM). For cytotoxicity analysis, the extracellular concentration of LDH was measured. […] For the control group, the release of LDH representing natural neuronal death was 24.7±0.45% of the total LDH release. Neurons exposed to Aβ-peptide increased the release of LDH to 38.0±0.92%.
The effects of the basic extract LBB from Lycium barbarum on Aβ-peptide-induced neurotoxicity were also investigated using the same approaches as for LBA. For cytotoxicity analysis, the extracellular concentration of LDH was measured.

caspase-2 = experiment: colorimetric caspase-2 activity assay in neurons exposed to Aβ-peptide; conditions: Aβ-peptide alone
Description: Caspase-2 is an important index for neuronal apoptosis for β-amyloid peptide neurotoxicity. It has been reported that Aβ-peptide triggered activation of caspase-2. […] Therefore, we used the colorimetric method to determine caspase-2 activity. For caspase-2 activity, the trend was similar to that of caspase-3. Neurons exposed to Aβ-peptide triggered a 1.6-fold increase in caspase-2 activity.
Caspase-2 is an important index for neuronal apoptosis for β-amyloid peptide neurotoxicity. For caspase-2 activity, the trend was similar to that of caspase-3. We also used colorimetric method to determine caspase-2 activity.

[2] = test system: neurons exposed to Aβ peptide; experiment: morphological changes of neurons exposed to Aβ-peptide; conditions: LBA 100 μg/ml, LBB 500 μg/ml, heparin 1 μM; 1 h, then Aβ peptide 25 μM 24 h
Protocol: Since LBA and LBB contain both carbohydrate and amino acid, we use heparin to make a comparison of their protective effects. Neurons were pre-incubated with either heparin (1 μM), LBA (100 μg/ml) or LBB (500 μg/ml) for 1 hour, followed by a 24-hour exposure to Aβ peptide (25 μM). The morphology of neurons after different treatments is shown in FIG. 12, in which (A) Control, (B) Aβ-peptide alone, (C) LBA (100 μg/ml), (D) LBA (100 μg/ml)+Aβ, (E) LBB (500 μg/ml), (F) LBB (500 μg/ml)+Aβ, (G) Heparin (1 μM) and (H) Heparin (1 μM)+Aβ. […] In B, neurons treated with Aβ-peptide for 24 hours undergo apoptosis, as shown by the destruction of the fine neurite network. […] G and H were neurons pre-incubated with heparin, and then without and with Aβ-peptide exposure. […] Based on the morphology of neurons, the mode of neuroprotection of LBA and LBB is somewhat different to that of heparin.
as §1

Molecule: [Cl-].[Li+] [LiCl, Lithium Chloride]
- caspase-3 activity as percent toxicity (caspase-3; 850 μ/ml (20 mM), 1 h pretreatment, Aβ25-35 25 μM 24 h, lowest value): 8.5%
- toxicity to neurons (caspase-3 percent toxicity) (caspase-3; about 85 μg/ml (2 mM), Aβ25-35 25 μM 24 h): toxic to neurons

Molecule: Oc1c2ccccc2c2c3c(cccc13)N=N2 [SP600125]
- caspase-3 activity as % toxicity (caspase-3; 1.1 μg/ml (5 μM), 1 h pretreatment, Aβ-peptide 25 μM 16 h): 23.8%
- caspase-3 activity as % toxicity (caspase-3; 4.4 μg/ml (20 μM), 1 h pretreatment, Aβ-peptide 25 μM 16 h): 69.3%
- caspase-3 activity as % toxicity (caspase-3; more than 20 μM, data not shown): 100%

Molecule: Aβ-peptide: β-amyloid peptide fragment 25-35 used at 25 μM as the neurotoxic challenge (GSNKGAIIGLM; Amyloid-beta protein 42; UniProt P05067 696-706, looked up, fragment)
- caspase-3 activity (caspase-3; Aβ-peptide treated group, no extract): 2.13 fold
- release of LDH, percentage of total LDH release [1]: 38.0±0.92%
- caspase-2 activity (caspase-2): 1.6 fold

Molecule: heparin
- morphology of neurons after pre-incubation and Aβ peptide [2]: elongated neurons
